Results taken from US20200385371A1 (Propellon Therapeutics Inc., priority 2017, published 2020).

How the values were obtained:
[1] = molecular target: T1, WDR5 (Homo sapiens, UniProt P61964); assay: Fluorescence Polarization (FP) binding assay
Experimental: H3 (1-15) ([…]), and 9-Ala-FAM ((Ac)-[…]-(Ahx-Ahx)-K(5,6-FAM)) (where Ahx represents 6 amino hexanoic acid linkers) peptides for WDR5 were synthesized, N-terminal-labeled with isothiocyanate-fluorescein, and purified by Tufts University Core Services (Boston, Mass.). Compound binding assays were performed at a constant labeled peptide concentration of 30 or 20 nM for H3 (1-15) and 9-Ala-FAM respectively. WDR5 concentrations of 0.3 μM for H3 (1-15) and 0.05 μM for 9-Ala-FAM were used. For both the H3 (1-15) and 9-Ala-FAM peptides, 80 mM sodium phosphate buffer (pH 6.5), 20 mM KCl, and 0.008% Triton X-100 was used. For the H3 (1-15) peptide, FP assays were measured in 10 μl aliquots in 384-well Axygen plates using a Synergy 4 microplate reader (BioTek) with an excitation wavelength of 485 nm and emission wavelength of 528 nm. For the 9-Ala-FAM peptide, FP assays were measured in 125 μl aliquots in 96 well Microfluor plates using a ViewLux instrument (Perkin Elmer) with an excitation wavelength of 480 nm and emission wavelength of 540 nm. To determine Kdsp values, the data were fit to a hyperbolic function using Sigma Plot software (Systat Software). The Kdisp values represent the average of quadruplicate measurements.

[2] = molecular target: T1, WDR5; assay: Surface Plasmon Resonance (SPR) assay; type: binding; design: Full length WDR5 with an N-terminal His tag and C-terminal AviTag; His tag (N); made in house; host or cells: E. coli; details: read-out: SPR Kd
Experimental: Exemplary compounds of the application were dissolved in 100% DMSO at 10 mM, assayed fresh, and then stored at −20° C. for repeat studies and other experiments. Full length WDR5 with an N-terminal His tag and C-terminal AviTag (Avidity Inc.) was expressed in E. coli with coexpression of BirA to biotin label the protein in vivo. Purification was via Ni-NTA.
SPR studies were performed using a Biacore™ T200 instrument (GE Health Sciences Inc.). Biotinylated WDR5 protein (approximately 3000RU) was stably captured to streptavidin coupled SA chips according to the manufacture's protocol (GE Health Sciences Inc.). The running buffer used was HBS-EP (20 mM Hepes pH 7.4, 150 mM NaCl, 3 mM EDTA, 0.05% P-20) plus 5% DMSO with a flow rate of 40 μl/min. For SPR analysis, 5 different concentrations of each exemplary compound of the application were sprayed into 96 or 384 well plates using an HP D300 digital dispenser. The concentration ranged from about 195 nM to about 12 nM in a two-fold series. […] Curve fitting and KD calculations were performed with the Biacore T200 Evalutation software (GE Health Sciences Inc).

[3] = system: MV4-11 cells; assay: Cell proliferation assay (ATPlite); type: cell-based; details: Homo sapiens, 120 h; MV4-11 cells, five days; read-out: GI MV411 EC50
Experimental: MV4-11 cells were seeded into a 96-well plate at 1,000 cells/well in 150 μl medium (Alpha-MEM containing 10% FBS, 100 μg/ml Normocin, and 50 μg/ml Gentamycin, Invitrogen). A HP D300 digital dispenser was used to dose cells with DMSO or test compounds across a 10-point range of concentrations (high dose of 10 μM), and cultures were grown in a humidified 5% CO2 incubator at 37° C. After five days, plates were removed from incubator and equilibrated to room temperature. An equal volume of ATPlite assay reagent was added to each well, and samples were processed according to manufacturer's instructions (Perkin Elmer). Luminescent signal was measured using an Envision plate reader equipped with a US-Luminescence detector.

| SMILES | IC50 [1] | Kd [2] | EC50 [3] |
| --- | --- | --- | --- |
| COc1cc(N2CC=C(c3c(F)cc(N4C[C@@H](C)N(C)[C@@H](C)C4)c(NC(=O)c4c[nH]c(=O)cc4C(F)(F)F)c3F)C2)ncn1 [Example 143, N-(2,4-difluoro-3-(1-(6-methoxypyrimidin-4-yl)-2,5-dihydro-1H-pyrrol-3-yl)-6-((3S,5R)-3,4,5-trimethylpiperazin-1-yl)phenyl)-6-oxo-4-(trifluoromethyl)-1,6-dihydropyridine-3-carboxamide] | 14.4 nM | 0.92 nM | 17.7 nM |
| C[C@H]1CN(c2cc(F)c(C3=CCCN(c4ccnc(C#N)n4)C3)c(F)c2NC(=O)c2c[nH]c(=O)cc2C(F)F)CCN1C [Example 113, (S)—N-(3-(1-(2-cyanopyrimidin-4-yl)-1,2,5,6-tetrahydropyridin-3-yl)-6-(3,4-dimethylpiperazin-1-yl)-2,4-difluorophenyl)-4-(difluoromethyl)-6-oxo-1,6-dihydropyridine-3-carboxamide] | 14.8 nM | 1.99 nM | 85.9 nM |
| CC(C)OC(=O)N1CC=C(c2c(F)cc(N3C[C@@H](C)N(C)[C@@H](C)C3)c(NC(=O)c3c[nH]c(=O)cc3C(F)(F)F)c2F)CC1 [Example 133] | 12.3 nM | 2.62 nM | 58.5 nM |
| C[C@@H]1CN(c2ccc(-c3c(F)cc(N4CCN(C)[C@@H](C)C4)c(NC(=O)c4ccc(F)cc4C(F)(F)F)c3F)cn2)CCO1 [Example 172, N-(6-((S)-3,4-dimethylpiperazin-1-yl)-2,4-difluoro-3-(6-((R)-2-methylmorpholino)pyridin-3-yl)phenyl)-4-fluoro-2-(trifluoromethyl)benzamide] | 18.9 nM | 1.02 nM | 124 nM |
| C[C@@H]1CN(c2ncc(-c3c(F)cc(N4C[C@@H](C)N(C)[C@@H](C)C4)c(NC(=O)c4c[nH]c(=O)cc4C(F)(F)F)c3F)cn2)C[C@H](C)O1 [Example 8, N-(3-(2-((2S,6R)-2,6-dimethylmorpholino)pyrimidin-5-yl)-2,4-difluoro-6-((3S,5R)-3,4,5-trimethylpiperazin-1-yl)phenyl)-6-oxo-4-(trifluoromethyl)-1,6-dihydropyridine-3-carboxamide] | 21.3 nM | 0.82 nM | 31 nM |
| C[C@@H]1CN(c2cc(F)c(-c3cnc(N(C)C)c(F)c3)c(F)c2NC(=O)c2c[nH]c(=O)cc2C(F)(F)F)C[C@H](C)N1C [Example 63, N-(3-(6-(dimethylamino)-5-fluoropyridin-3-yl)-2,4-difluoro-6-((3S,5R)-3,4,5-trimethylpiperazin-1-yl)phenyl)-6-oxo-4-(trifluoromethyl)-1,6-dihydropyridine-3-carboxamide] | 13 nM | 1.81 nM | 61.8 nM |
| COc1cc(N2CCC=C(c3c(F)cc(N4C[C@@H](C)N(C)[C@@H](C)C4)c(NC(=O)c4c[nH]c(=O)cc4C(F)(F)F)c3F)C2)ncn1 [Example 142, N-(2,4-difluoro-3-(1-(6-methoxypyrimidin-4-yl)-1,2,5,6-tetrahydropyridin-3-yl)-6-((3S,5R)-3,4,5-trimethylpiperazin-1-yl)phenyl)-6-oxo-4-(trifluoromethyl)-1,6-dihydropyridine-3-carboxamide] | 13.2 nM | 1.76 nM | 38.3 nM |
| CC(C)[C@H]1CN(c2ncc(-c3c(F)cc(N4C[C@@H](C)N(C)[C@@H](C)C4)c(NC(=O)c4c[nH]c(=O)cc4C(F)F)c3F)cn2)CCO1 [Example 122, N-(2,4-Difluoro-3-(2-((S)-2-isopropylmorpholino)pyrimidin-5-yl)-6-((3S,5R)-3,4,5-trimethylpiperazin-1-yl)phenyl)-4-(difluoromethyl)-6-oxo-1,6-dihydropyridine-3-carboxamide] | 12.5 nM | 1.98 nM | 22.1 nM |
